Source: US7208314B2, “Compositions and methods for drug delivery using pH sensitive molecules” (priority 2002, dated 2007)

Key:
cells = type: cell-based; details: for Relative Light Units (luciferase expression): pCIluc DNA/poly-L-lysine complex plus 40 μg modified lipid, 48 h; for Relative Light Units relative to poly-L-lysine (no lipid): value in parentheses
red blood cells = assay: Blood lysis experiment on melittin conjugated to microspheres via ketal; type: cell-based
Procedure: The microspheres were taken up in H2O (500 μL) and partitioned into five 100 μL samples. Four of the samples were diluted to 1000 μL with sodium phosphate buffer (100 mM) at pH 7.5, 6.0, 5.5, and 5.0. Samples were held at 37° C., spun down, and 150 μL aliquots taken at 30 min, 60 min, 90 min, and 16 hrs. A portion of each sample (100 μL) was diluted with sodium phosphate buffer (400 μL, pH 7.5) and added to red blood cells (100 μL, pH 7.5). Red blood cell lysis was measured after 10 min by measuring the absorbance at 541 nm. A control sample was also measured in which 100% of the red blood cells had been lysed with melittin alone.
The fifth 100 μL sample was further divided into 25 μL samples, three of which were diluted to 250 μL with sodium phosphate buffer (100 mM) at pH 7.5, 6.0, and 5.0. The samples were held at 37° C. for 30 min, spun down and the supernatant removed, and resuspended in 2.5 M NaCl solution (50 μL) and mixed. After 10 min the microspheres were spun down and the supernatant removed. The samples were added to red blood cells (500 μL, 100 mM) and the absorbance was measured at 541 nm.

**Q.** What does the source list for CCCCCCCC/C=C\CCCCCCCC(=O)OC[C@H](COP(=O)(O)OCCNC(=O)/C(C)=C(/C)C(=O)O)OC(=O)CCCCCCC/C=C\CCCCCCCC [2,3-dimethylmaleamic-modified DOPE]?
**A.** Relative Light Units (luciferase expression) (cells): 243359 Relative Light Units; Relative Light Units relative to poly-L-lysine (no lipid) (cells): 40

**Q.** For “Melittin Conjugated to Microspheres: melittin attached to carboxylic acid modified microspheres via Di-(2-methyl-4-hydroxymethyl-1,3-dioxolane)-1,4-benzene ketal”, which “A541 (red blood cell lysis)” value (red blood cells; 30 min pH 5.0, 37° C.) is on record?
**A.** 0.659

**Q.** What about the “A541 (red blood cell lysis)” value (red blood cells; 30 min pH 5.5, 37° C.) of the same compound?
**A.** 0.609

**Q.** What about the “A541 (red blood cell lysis)” value (red blood cells; 30 min pH 6.0, 37° C.) of the same compound?
**A.** 0.326

**Q.** What about the “A541 (red blood cell lysis)” value (red blood cells; 30 min pH 7.5, 37° C.) of the same compound?
**A.** 0.026

**Q.** What about the “A541 (red blood cell lysis)” value (red blood cells; 60 min pH 5.0, 37° C.) of the same compound?
**A.** 0.730

**Q.** What about the “A541 (red blood cell lysis)” value (red blood cells; 60 min pH 5.5, 37° C.) of the same compound?
**A.** 0.526

**Q.** And the “A541 (red blood cell lysis)” value (red blood cells; 60 min pH 6.0, 37° C.)?
**A.** 0.212

**Q.** And the “A541 (red blood cell lysis)” value (red blood cells; 60 min pH 7.5, 37° C.)?
**A.** 0.027

**Q.** And the “A541 (red blood cell lysis)” value (red blood cells; 90 min pH 5.0, 37° C.)?
**A.** 0.892

**Q.** What about the “A541 (red blood cell lysis)” value (red blood cells; 90 min pH 5.5, 37° C.) of the same compound?
**A.** 0.640

**Q.** And the “A541 (red blood cell lysis)” value (red blood cells; 90 min pH 6.0, 37° C.)?
**A.** 0.390

**Q.** What about the “A541 (red blood cell lysis)” value (red blood cells; 90 min pH 7.5, 37° C.) of the same compound?
**A.** 0.036

**Q.** And the “A541 (red blood cell lysis)” value (red blood cells; 16 hrs pH 5.0, 37° C.)?
**A.** 1.163

**Q.** And the “A541 (red blood cell lysis)” value (red blood cells; 16 hrs pH 5.5, 37° C.)?
**A.** 0.796

**Q.** And the “A541 (red blood cell lysis)” value (red blood cells; 16 hrs pH 6.0, 37° C.)?
**A.** 0.354

**Q.** And the “A541 (red blood cell lysis)” value (red blood cells; 16 hrs pH 7.5, 37° C.)?
**A.** 0.065

**Q.** What about the “time of rapid release of modified peptide” value (red blood cells; all acidic pH levels tested) of the same compound?
**A.** < 30 min

**Q.** What about the “release of modified peptide from the microsphere” value (red blood cells; pH 7.5) of the same compound?
**A.** not released

**Q.** What about the “A541 (red blood cell lysis)” value (red blood cells; second experiment, 30 min pH 5.0 supernatant) of the same compound?
**A.** 0.685

**Q.** What about the “A541 (red blood cell lysis)” value (red blood cells; second experiment, 30 min pH 6.0 supernatant) of the same compound?
**A.** 0.213

**Q.** And the “A541 (red blood cell lysis)” value (red blood cells; second experiment, 30 min pH 7.5 supernatant)?
**A.** 0.053

**Q.** What about the “A541 (red blood cell lysis)” value (red blood cells; second experiment, pH 5.0, 2.5 M NaCl wash) of the same compound?
**A.** 0.101

**Q.** And the “A541 (red blood cell lysis)” value (red blood cells; second experiment, pH 6.0, 2.5 M NaCl wash)?
**A.** 0.162

**Q.** What about the “A541 (red blood cell lysis)” value (red blood cells; second experiment, pH 7.5, 2.5 M NaCl wash) of the same compound?
**A.** 0.087

**Q.** With CCCCCCCC/C=C\CCCCCCCC(=O)OCC(COC(=O)/C(C)=C(/C)C(=O)O)OC(=O)CCCCCCC/C=C\CCCCCCCC (stereo not shown) [2,3-dimethylmaleamic-modified DOG] as the compound, how does the “Relative Light Units (luciferase expression)” value (cells) read?
**A.** 193624 Relative Light Units

**Q.** What about the “Relative Light Units relative to poly-L-lysine (no lipid)” value (cells) of the same compound?
**A.** 32
